Data from patent US10899790B2, “Method for modifying T cell population” (OSAKA UNIVERSITY, priority 2016, dated 2021).

Columns and labels:
[1] = system: Healthy human-derived CD4+CD45RO+T cells; assay: Effect in vitro: CD62L and CD127 expression in cultured T cells by flow cytometry; type: cell-based; settings: 20 μM; anti-CD3, anti-CD28, IL-2; vs DMSO control (FIG. 2)
Description: Healthy human-derived CD4^+CD45RO^+T cells (1×10^5) were cultured in the presence of anti-CD3 antibody (2 μg/ml), anti-CD28 antibody (2 μg/ml), IL-2 (20 IU/ml) and RDH10 inhibitors (Compound No. 16 (RDHI-032), Compound No. 17 (RDHI-033), and Compound No. 18 (RDHI-034)) (20 μM for each). In addition, DMSO was used as a control for the RDH10 inhibitor. After seven days […] resuspended in a fresh culture medium to which IL-2 was not added, and cultured for one more day. Thereafter, the expression of CD62L and CD127 in T cells was analyzed by flow cytometry. The culture solution used was X-VIVO15 to which AB serum was added to have a final concentration of 10%.

[2] = target: T1, Retinol Dehydrogenase 10 (RDH10) (Homo sapiens, UniProt Q8IZV5); assay: Inhibition of RDH10 enzyme activity (microsomal fraction of RDH10-expressed 293T, all-trans retinol to all-trans retinal, HPLC); type: biochemical; settings: final concentration of 20 μM; relative to DMSO control (FIG. 1)
T1 construct: expressed in transfected cells; host or cells: 293T (microsomal fraction)
T1 sequence (Q8IZV5 1-341): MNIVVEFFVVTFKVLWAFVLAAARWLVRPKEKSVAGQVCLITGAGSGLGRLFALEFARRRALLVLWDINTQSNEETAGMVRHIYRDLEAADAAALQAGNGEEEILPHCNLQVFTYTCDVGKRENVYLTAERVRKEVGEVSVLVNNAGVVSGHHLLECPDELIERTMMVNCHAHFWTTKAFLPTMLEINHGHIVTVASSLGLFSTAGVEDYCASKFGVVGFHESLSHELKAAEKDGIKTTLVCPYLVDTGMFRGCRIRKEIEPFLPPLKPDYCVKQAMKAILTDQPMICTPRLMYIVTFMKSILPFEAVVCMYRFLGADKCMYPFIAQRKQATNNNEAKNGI
Description: All-trans retinol, BSA, and NAD (nicotinamide adenine dinucleotide) as a coenzyme were added to a buffer for reaction (90 mM potassium phosphate buffer, pH7.4, 40 mM KCl) so as to have final concentrations of 10 μM, 10 μM, and 1 mM respectively. This mixture was taken in siliconized tubes by 200 μl for each, the microsomal fractions separated from 293T and RDH10-expressed 293T were added to separate tubes by 10 μl for each, and the mixtures were allowed to react at 37° C. for 15 minutes. After 200 μl of methanol was added to the reaction mixtures to stop the reaction, retinoid was extracted using hexane and concentrated. The concentrated retinoid was dissolved in 150 μl of acetonitrile, separated by HPLC, and subjected to the detection of ultraviolet light absorption at a wavelength of 350 nm, whereby the substrate (all-trans retinol) and the product (all-trans retinal) were detected. In addition, standard samples (all-trans retinol and all-trans retinal) were separated by HPLC and the retention times of the respective standard samples were determined in advance. The solvent for HPLC was acetonitrile: 50 mM ammonium acetate=75:25. As the separation column, Syhergi 4 μm Hydro-RP 80A (manufactured by Phenomenex) was used. In addition, the flow rate was 2.0 ml/min. The RDH10 enzyme activity was calculated by reading the amount of product per fixed time from the chart of HPLC.
All-trans retinol, BSA, and NAD (nicotinamide adenine dinucleotide) as a coenzyme were added to a buffer for reaction (90 mM potassium phosphate buffer, pH7.4, 40 mM KCl) so as to have final concentrations of 10 μM, 10 μM, and 1 mM respectively. This mixture was taken in siliconized tubes by 200 μl for each, the microsomal fraction separated from RDH10-expressed 293T was added to separate tubes by 10 μl for each. The RDH10 inhibitor dissolved in DMSO was added to each tube so as to have a final concentration of 20 μM, and the same amount of DMSO was added to the control tube. The mixture was allowed to react at 37° C. for 15 to 30 minutes, 200 μl of methanol was added to the reaction mixtures, and then retinoid was extracted using hexane and concentrated. The concentrated retinoid was dissolved in 150 μl of acetonitrile, separated by HPLC, and subjected to the detection of ultraviolet light absorption at a wavelength of 350 nm, whereby the substrate (all-trans retinol) and the product (all-trans retinal) were detected. In addition, standard samples (all-trans retinol and all-trans retinal) were separated by HPLC and the retention times of the respective standard samples were determined in advance. The solvent for HPLC was acetonitrile: 50 mM ammonium acetate=75:25. As the separation column, Syhergi 4 μm Hydro-RP 80A (manufactured by Phenomenex) was used. The flow rate was 2.0 ml/min.
The enzyme activity was determined by the waveform area of the product (all-trans retinal) with respective to the waveform area of the non-reacted substrate (all-trans retinol), and the relative value with respect to the enzyme activity in the control is illustrated in FIG. 1. The error bars indicate SD (standard deviation).

| RDH10 enzyme activity inhibitory action [2] | Structure (SMILES) | amplification of memory T cells (CD62L+CD127+T cells) [1] |
| --- | --- | --- |
|  | COC(=O)[C@@]1(C)CC[C@]2(C)CC[C@]3(C)C(=CC(=O)[C@@H]4[C@@]5(C)CCC(NC(=O)c6ccccc6C(=O)O)C(C)(C)[C@@H]5CC[C@]43C)[C@H]2C1 (stereo partly drawn) [Compound No. 3, 2-((4aR,6aR,6bS,8aS,11S,12aS,14aR,14bS)-11-(methoxycarbonyl)-4,4,6a,6b,8a,11,14b-heptamethyl-14-oxo-1,2,3,4,4a,5,6,6a,6b,7,8,8a,9,10,11,12,12a,14,14a,14b-icosahydropicen-3-ylcarbamoyl)benzoic acid] | tended to amplify memory cells |
| relatively potent | COC(=O)[C@@]1(C)CC[C@]2(C)CC[C@]3(C)C(=CC(=O)[C@@H]4[C@@]5(C)CCC(NC(=O)N[C@@H](Cc6ccccc6)C(=O)O)C(C)(C)[C@@H]5CC[C@]43C)[C@H]2C1 (stereo partly drawn) [Compound No. 14, (2S)-2-(3-((4aR,6aR,6bS,8aS,11S,12aS,14aR,14bS)-11-(methoxycarbonyl)-4,4,6a,6b,8a,11,14b-heptamethyl-14-oxo-1,2,3,4,4a,5,6,6a,6b,7,8,8a,9,10,11,12,12a,14,14a,14b-icosahydropicen-3-yl)ureido)-3-phenyl propanoic acid] |  |
|  | COC(=O)[C@H](Cc1ccccc1)NC(=O)NC1CC[C@]2(C)[C@H]3C(=O)C=C4[C@H]5C[C@@](C)(C(=O)OC)CC[C@]5(C)CC[C@@]4(C)[C@]3(C)CC[C@H]2C1(C)C (stereo partly drawn) [Compound No. 11, (2S,4aS,6aS,6bR,8aR,12aS,12bR,14bS)-methyl 10-(3-((S)-1-methoxy-1-oxo-3-phenylpropan-2-yl)ureido)-2,4a,6a,6b,9,9,12a-heptamethyl-13-oxo-1,2,3,4,4a,5,6,6a,6b,7,8,8a,9,10,11,12,12a,12b,13,14b-icosahydropicene-2-carboxylate] | tended to amplify memory cells |
| relatively potent | COC(=O)c1ccccc1NC(=O)NC1CC[C@]2(C)[C@H]3C(=O)C=C4[C@H]5C[C@@](C)(C(=O)OC)CC[C@]5(C)CC[C@@]4(C)[C@]3(C)CC[C@H]2C1(C)C (stereo partly drawn) [Compound No. 9, (2S,4aS,6aS,6bR,8aR,12aS,12bR,14bS)-methyl 10-(3-(2-(methoxycarbonyl)phenyl)ureido)-2,4a,6a,6b,9,9,12a-heptamethyl-13-oxo-1,2,3,4,4a,5,6,6a,6b,7,8,8a,9,10,11,12,12a,12b,13,14b-icosahydropicene-2-carboxylate] |  |
|  | CC1(C)C(NC(=O)c2ccccc2C(=O)O)CC[C@]2(C)[C@H]3C(=O)C=C4[C@@H]5C[C@@](C)(C(=O)O)CC[C@]5(C)CC[C@@]4(C)[C@]3(C)CC[C@@H]12 (stereo partly drawn) [Compound No. 27, (2S,4aS,6aS,6bR,8aR,12aS,12bR,14bR)-10-(2-carboxybenzamide)-2,4a,6a,6b,9,9,12a-heptamethyl-13-oxo-1,2,3,4,4a,5,6,6a,6b,7,8,8a,9,10,11,12,12a,12b,13,14b-icosahydropicene-2-carboxylic acid] | tended to amplify memory cells |
|  | CC1(C)C(N)CC[C@]2(C)[C@H]3C(=O)C=C4[C@@H]5C[C@@](C)(C(=O)O)CC[C@]5(C)CC[C@@]4(C)[C@]3(C)CC[C@@H]12.Cl (stereo partly drawn) [Compound No. 21, (2S,4aS,6aS,6bR,8aR,12aS,12bR,14bR)-10-amino-2,4a,6a,6b,9,9,12a-heptamethyl-13-oxo-1,2,3,4,4a,5,6,6a,6b,7,8,8a,9,10,11,12,12a,12b,13,14b-icosahydropicene-2-carboxylic acid hydrochloride] | tended to amplify memory cells |
|  | COC(=O)[C@@]1(C)CC[C@]2(C)CC[C@]3(C)C(=CC(=O)[C@@H]4[C@@]5(C)CCC(NC(=O)Nc6ccccc6C(=O)O)C(C)(C)[C@@H]5CC[C@]43C)[C@H]2C1 (stereo partly drawn) [Compound No. 12, 2-(3-((4aR,6aR,6bS,8aS,11S,12aS,14aR,14bS)-11-(methoxycarbonyl)-4,4,6a,6b,8a,11,14b-heptamethyl-14-oxo-1,2,3,4,4a,5,6,6a,6b,7,8,8a,9,10,11,12,12a,14,14a,14b-icosahydropicen-3-yl)ureido)benzoic acid] | tended to amplify memory cells |
|  | CC1(C)C(=NO)CC[C@]2(C)[C@H]3C(=O)C=C4[C@H]5C[C@@](C)(C(N)=O)CC[C@]5(C)CC[C@@]4(C)[C@]3(C)CC[C@@H]12 [RDHI-038, (2S,4aS,6aS,6bR,8aR,12aS,12bR,14bS)-10-(hydroxyimino)-2,4a,6a,6b,9,9,12a-heptamethyl-13-oxo-1,2,3,4,4a,5,6,6a,6b,7,8,8a,9,10,11,12,12a,12b,13,14b-icosahydropicene-2-carboxamide] | tended to amplify memory cells |
|  | CC1(C)C(N)CC[C@]2(C)[C@H]3C(=O)C=C4[C@H]5C[C@@](C)(C(N)=O)CC[C@]5(C)CC[C@@]4(C)[C@]3(C)CC[C@@H]12 (stereo partly drawn) [Compound No. 19, (2S,4aS,6aS,6bR,8aR,12aS,12bR,14bS)-10-amino-2,4a,6a,6b,9,9,12a-heptamethyl-13-oxo-1,2,3,4,4a,5,6,6a,6b,7,8,8a,9,10,11,12,12a,12b,13,14b-icosahydropicene-2-carboxamide] | tended to amplify memory cells |
|  | CC1(C)C(N)CC[C@]2(C)[C@H]3C(=O)C=C4[C@H]5C[C@@](C)(C(=O)O)CC[C@]5(C)CC[C@@]4(C)[C@]3(C)CC[C@@H]12.Cl (stereo partly drawn) [Compound No. 20, (2S,4aS,6aS,6bR,8aR,12aS,12bR,14bS)-10-amino-2,4a,6a,6b,9,9,12a-heptamethyl-13-oxo-1,2,3,4,4a,5,6,6a,6b,7,8,8a,9,10,11,12,12a,12b,13,14b-icosahydropicene-2-carboxylic acid hydrochloride] | tended to amplify memory cells |
| relatively potent | CCOC(=O)CNC(=O)NC1CC[C@]2(C)[C@H]3C(=O)C=C4[C@H]5C[C@@](C)(C(=O)OC)CC[C@]5(C)CC[C@@]4(C)[C@]3(C)CC[C@H]2C1(C)C (stereo partly drawn) [Compound No. 10, (2S,4aS,6aS,6bR,8aR,12aS,12bR,14bS)-methyl 10-(3-(2-ethoxy-2-oxoethyl)ureido)-2,4a,6a,6b,9,9,12a-heptamethyl-13-oxo-1,2,3,4,4a,5,6,6a,6b,7,8,8a,9,10,11,12,12a,12b,13,14b-icosahydropicene-2-carboxylate] |  |
|  | COC(=O)[C@@]1(C)CC[C@]2(C)CC[C@]3(C)C(=CC(=O)[C@@H]4[C@@]5(C)CCC(NC(=O)/C=C\C(=O)O)C(C)(C)[C@@H]5CC[C@]43C)[C@@H]2C1 (stereo partly drawn) [Compound No. 6, (Z)-4-((4aR,6aR,6bS,8aS,11S,12aR,14aR,14bS)-11-(methoxycarbonyl)-4,4,6a,6b,8a,11,14b-heptamethyl-14-oxo-1,2,3,4,4a,5,6,6a,6b,7,8,8a,9,10,11,12,12a,14,14a,14b-icosahydropicen-3-ylamino)-4-oxobut-2-enoic acid] | tended to amplify memory cells |
